The source of these data is patent publication US12331040B2 (Karyopharm Therapeutics Inc., priority 2013, dated 2025).

Holding throughout (assay): MTT cell proliferation assay
Type in all cases: cell-based
On the technique in general: Tetrazolium dyes change colour on reduction, which living cells bring about.

One assay has as its system MS751 cells. The note with it: Homo sapiens, approximately 64-72 hours incubation. The procedure, abridged: (§1)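 5,000-10,000 cells/well, overnight attach; 8 conc., 1 nM–30 μM; MTT ~4 h; formazan solubilized, OD 490 nm; % inhibition = (1−(ODo/OD))×100 vs neg. control; mostly duplicate, mean±SE.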
Another assay relates to 3T3 cells. Conditions: Mus musculus, NIH3T3, approximately 64-72 hours incubation. The procedure, abridged:
as §1

The subject of a further assay is Z138 cells. Conditions: Homo sapiens, Z-138, Z138 cells, approximately 64-72 hours incubation. The procedure, abridged: as §1
Where [1] appears, read: MS751, MS751 cells, read-out: MTT Assay IC50 MS-751.
Setting [2] is: MS751, MS751 cells, read-out: MTT Assay IC50, MS-751.
Setting [3] is: read-out: MTT Assay IC50, Z-138.

Where two headings read alike, the source gives them in different places. A value given as a limit tells only on which side of the number the result lay.

In the case of `Nc1ccc(/C=C/C(=O)NCc2cc3cc(-c4ccc(C(=O)N5CCC[C@@H]5C(F)(F)F)cn4)cc(C(F)(F)F)c3o2)cn1` [Compound 624, (R,E)-3-(6-aminopyridin-3-yl)-N-((7-(trifluoromethyl)-5-(5-(2-(trifluoromethyl)pyrrolidine-1-carbonyl)pyridin-2-yl)benzofuran-2-yl)methyl)acrylamide], the IC50 in the assay with MS751 cells (setting [1]) is 0.1 to 5 µM; with 3T3 cells (read-out: MTT Assay IC50 3T3), over 10 µM; with Z138 cells (read-out: MTT Assay IC50 Z-138), 0.1 to 5 µM.
On to `Nc1ccc(/C=C/C(=O)NCc2cc3cc(-c4cnc(C(=O)N5CCOCC5)nc4)cc(Cl)c3o2)cn1` [Compound 546, (E)-3-(6-Aminopyridin-3-yl)-N-((7-chloro-5-(2-(morpholine-4-carbonyl)pyrimidin-5-yl)benzofuran-2-yl)methyl)acrylamide], for which the IC50 in the assay on MS751 cells (setting [1]) is 0.1 to 5 µM; in the assay on 3T3 cells (read-out: MTT Assay IC50 3T3), over 10 µM; with Z138 cells (read-out: MTT Assay IC50 Z-138) it was 0.1 to 5 µM.
Regarding `Nc1ccc(/C=C/C(=O)NCc2cc3cc(-c4ccc(C(=O)N5CCCCC5)cc4)cc(C(F)(F)F)c3o2)cn1` [Compound 595, (E)-3-(6-aminopyridin-3-yl)-N-((5-(4-(piperidine-1-carbonyl)phenyl)-7-(trifluoromethyl)benzofuran-2-yl)methyl)acrylamide], the IC50 in the assay on MS751 cells (setting [1]) is 0.1 to 5 µM; in the assay with 3T3 cells (read-out: MTT Assay IC50 3T3), over 10 µM; in the assay with Z138 cells (read-out: MTT Assay IC50 Z-138), 0.1 to 5 µM.
For the compound `COc1cc(-c2ncc(C(=O)N3CCNCC3)cn2)cc2cc(CNC(=O)/C=C/c3ccc(N)nc3)oc12` [Compound 639, (E)-3-(6-aminopyridin-3-yl)-N-((7-methoxy-5-(5-(piperazine-1-carbonyl)pyrimidin-2-yl)benzofuran-2-yl)methyl)acrylamide], the results for the IC50 with MS751 cells (setting [1]), with 3T3 cells (read-out: MTT Assay IC50 3T3) and in the assay on Z138 cells (read-out: MTT Assay IC50 Z-138) were 0.1 to 5 µM, over 10 µM and 0.1 to 5 µM, respectively.
In the case of `Nc1ccc(/C=C/C(=O)NCc2cc3cc(-c4ccc(C(=O)N5CCC(F)(F)C5)cn4)cc(C(F)(F)F)c3o2)cn1` [Compound 612, (E)-3-(6-aminopyridin-3-yl)-N-((5-(5-(3,3-difluoropyrrolidine-1-carbonyl)pyridin-2-yl)-7-(trifluoromethyl)benzofuran-2-yl)methyl)acrylamide], the IC50 was 0.1 to 5 µM in the assay on MS751 cells (setting [1]), over 10 µM in the assay on 3T3 cells (read-out: MTT Assay IC50 3T3) and under 0.1 µM in the assay on Z138 cells (read-out: MTT Assay IC50 Z-138).
The corresponding values for `Nc1ccc(/C=C/C(=O)NCc2cc3cc(-c4ccc(C(=O)NC5(C(F)(F)F)CC5)cn4)cc(C(F)(F)F)c3o2)cn1` [Compound 619, (E)-6-(2-((3-(6-aminopyridin-3-yl)acrylamido)methyl)-7-(trifluoromethyl)benzofuran-5-yl)-N-(1-(trifluoromethyl)cyclopropyl)nicotinamide] are 0.1 to 5 µM, over 10 µM and 0.1 to 5 µM.
Consider `O=C(/C=C/c1cccnc1)NCc1cc2cc(-c3ccc(C(=O)N4CCC(F)(F)CC4)cn3)cc(-c3cccnc3)c2o1` [Compound 673, (E)-N-((5-(5-(4,4-difluoropiperidine-1-carbonyl)pyridin-2-yl)-7-(pyridin-3-yl)benzofuran-2-yl)methyl)-3-(pyridin-3-yl)acrylamide], for which the half-inhibitory concentration (IC50) with MS751 cells (setting [2]) is under 0.1 µM; in the assay with 3T3 cells (read-out: MTT Assay IC50, 3T3), under 0.1 µM; with Z138 cells (setting [3]) it was under 0.1 µM.
In the case of `O=C(/C=C/c1cscn1)NCc1cc2cc(-c3ccc(C(=O)N4CCOCC4)cc3)cc(Cl)c2o1` [Compound 542], the figures for the IC50 in the assay on MS751 cells (setting [1]), in the assay with 3T3 cells (read-out: MTT Assay IC50 3T3) and in the assay with Z138 cells (read-out: MTT Assay IC50 Z-138) were 0.1 to 5 µM, over 10 µM and 0.1 to 5 µM, respectively.
In the case of `Nc1ccc(/C=C/C(=O)NCc2cc3cc(-c4ccc(C(=O)N5CC(F)(F)C5)cn4)cc(C(F)(F)F)c3o2)cn1` [Compound 645, (E)-3-(6-aminopyridin-3-yl)-N-((5-(5-(3,3-difluoroazetidine-1-carbonyl)pyridin-2-yl)-7-(trifluoromethyl)benzofuran-2-yl)methyl)acrylamide], the IC50 in the assay with MS751 cells (setting [1]) was 0.1 to 5 µM; in the assay on 3T3 cells (read-out: MTT Assay IC50 3T3) it was over 10 µM; in the assay on Z138 cells (read-out: MTT Assay IC50 Z-138) it was under 0.1 µM.
For `Nc1ccc(/C=C/C(=O)NCc2cc3cc(-c4ccc(C(=O)N5CCC(F)(F)CC5)cc4)cc(-c4cccnc4)c3o2)cn1` [Compound 724, (E)-3-(6-aminopyridin-3-yl)-N-((5-(4-(4,4-difluoropiperidine-1-carbonyl)phenyl)-7-(pyridin-3-yl)benzofuran-2-yl)methyl)acrylamide], the IC50 in the assay on MS751 cells (setting [2]) was under 0.1 µM; in the assay with 3T3 cells (read-out: MTT Assay IC50, 3T3), 0.1 to 5 µM; with Z138 cells (setting [3]) it was under 0.1 µM.
For the compound `CN1C(=O)c2ccc(-c3cc(Cl)c4oc(CNC(=O)/C=C/c5ccc(N)nc5)cc4c3)cc2C1=O` [Compound 514, (E)-3-(6-aminopyridin-3-yl)-N-((7-chloro-5-(2-methyl-1,3-dioxoisoindolin-5-yl)benzofuran-2-yl)methyl)acrylamide], the IC50 in the assay with MS751 cells (setting [1]) was 5 to 10 µM; in the assay with 3T3 cells (read-out: MTT Assay IC50 3T3), over 10 µM; with Z138 cells (read-out: MTT Assay IC50 Z-138), 0.1 to 5 µM.
In the case of `Nc1ccc(/C=C/C(=O)NCc2cc3cc(-c4ccc(C(=O)NNc5ccccn5)cc4)cc(C(F)(F)F)c3o2)cn1` [Compound 518, (E)-3-(6-aminopyridin-3-yl)-N-((5-(4-(2-(pyridin-2-yl)hydrazinecarbonyl)phenyl)-7-(trifluoromethyl)benzofuran-2-yl)methyl)acrylamide], the IC50 was 0.1 to 5 µM in the assay with MS751 cells (MS751 cells, read-out: MTT Assay IC50 MS-751); over 10 µM with 3T3 cells (read-out: MTT Assay IC50 3T3); 0.1 to 5 µM in the assay with Z138 cells (read-out: MTT Assay IC50 Z-138).
On to `Nc1ccc(/C=C/C(=O)NCc2cc3cc(-c4ccc(C(=O)N5CCC(F)(F)CC5)cn4)cc(Cl)c3o2)cn1` [Compound 591, (E)-3-(6-aminopyridin-3-yl)-N-((7-chloro-5-(5-(4,4-difluoropiperidine-1-carbonyl)pyridin-2-yl)benzofuran-2-yl)methyl)acrylamide], for which the values for the half-inhibitory concentration (IC50) with MS751 cells (setting [1]), in the assay on 3T3 cells (read-out: MTT Assay IC50 3T3) and in the assay on Z138 cells (read-out: MTT Assay IC50 Z-138) were 0.1 to 5 µM, over 10 µM and 0.1 to 5 µM, respectively.
On to `Nc1ccc(/C=C/C(=O)NCc2nc3cc(-c4ccc(C(=O)N5CCOCC5)cc4)cc(Cl)c3o2)cn1` [Compound 501, (E)-3-(6-aminopyridin-3-yl)-N-((7-chloro-5-(4-(morpholine-4-carbonyl)phenyl)benzo[d]oxazol-2-yl)methyl)acrylamide], for which the IC50 with MS751 cells (setting [1]) was 0.1 to 5 µM; in the assay on 3T3 cells (read-out: MTT Assay IC50 3T3), over 10 µM; in the assay with Z138 cells (read-out: MTT Assay IC50 Z-138), 0.1 to 5 µM.
With `O=C(/C=C/c1cccnc1)NCc1cc2cc(-c3ccc(C(=O)N4CCC(F)(F)CC4)cn3)cc(-c3cc4ccccc4o3)c2o1` [Compound 721, (E)-N-((5′-(5-(4,4-difluoropiperidine-1-carbonyl)pyridin-2-yl)-[2,7′-bibenzofuran]-2′-yl)methyl)-3-(pyridin-3-yl)acrylamide], the IC50 was under 0.1 µM with MS751 cells (setting [2]); under 0.1 µM with 3T3 cells (read-out: MTT Assay IC50, 3T3); under 0.1 µM with Z138 cells (setting [3]).
For the compound `Nc1ccc(/C=C/C(=O)NCc2cc3cc(-c4ccc(C(=O)N5CCC(F)(F)CC5)cc4)cc(-c4ccccn4)c3o2)cn1` [Compound 746, (E)-3-(6-aminopyridin-3-yl)-N-((5-(4-(4,4-difluoropiperidine-1-carbonyl)phenyl)-7-(pyridin-2-yl)benzofuran-2-yl)methyl)acrylamide], the IC50 in the assay with MS751 cells (setting [2]) was under 0.1 µM; in the assay with 3T3 cells (read-out: MTT Assay IC50, 3T3), 0.1 to 5 µM; in the assay with Z138 cells (setting [3]), under 0.1 µM.
For the compound `Nc1ccc(/C=C/C(=O)NCc2cc3c(C(F)(F)F)cc(-c4ccc(C(=O)N5CCC(F)(F)CC5)cn4)cc3o2)cn1` [Compound 762, (E)-3-(6-aminopyridin-3-yl)-N-((6-(5-(4,4-difluoropiperidine-1-carbonyl)pyridin-2-yl)-4-(trifluoromethyl)benzofuran-2-yl)methyl)acrylamide], the IC50 with MS751 cells (setting [2]) was 5 to 10 µM; in the assay with 3T3 cells (read-out: MTT Assay IC50, 3T3), over 10 µM; in the assay on Z138 cells (setting [3]) it was 0.1 to 5 µM.
Take `Nc1ccc(/C=C/C(=O)NCc2cc3cc(-c4ccc(C(=O)N5CC6CC6C5)cn4)cc(C(F)(F)F)c3o2)cn1` (stereo not drawn) [Compound 623, (E)-N-((5-(5-(3-azabicyclo[3.1.0]hexane-3-carbonyl)pyridin-2-yl)-7-(trifluoromethyl)benzofuran-2-yl)methyl)-3-(6-aminopyridin-3-yl)acrylamide]: the IC50 in the assay on MS751 cells (setting [1]) is 0.1 to 5 µM; with 3T3 cells (read-out: MTT Assay IC50 3T3) it was over 10 µM; in the assay with Z138 cells (read-out: MTT Assay IC50 Z-138), 0.1 to 5 µM.
Turning to `Nc1ccc(/C=C/C(=O)NCc2cc3cc(-c4ccc(C(=O)N5CCC(F)(F)CC5)cc4)cc(-c4ccncc4)c3o2)cn1` [Compound 722, (E)-3-(6-aminopyridin-3-yl)-N-((5-(4-(4,4-difluoropiperidine-1-carbonyl)phenyl)-7-(pyridin-4-yl)benzofuran-2-yl)methyl)acrylamide], the IC50 with MS751 cells (setting [2]) was under 0.1 µM; in the assay with 3T3 cells (read-out: MTT Assay IC50, 3T3), 0.1 to 5 µM; in the assay with Z138 cells (setting [3]), under 0.1 µM.
Regarding `Nc1ccc(/C=C/C(=O)NCc2cc3cc(-c4ccc(C(=O)N5CCC(F)(F)CC5)cn4)c(C(F)(F)F)cc3o2)cn1` [Compound 664, (E)-3-(6-aminopyridin-3-yl)-N-((5-(5-(4,4-difluoropiperidine-1-carbonyl)pyridin-2-yl)-6-(trifluoromethyl)benzofuran-2-yl)methyl)acrylamide], the half-maximal inhibitory concentration (IC50) with MS751 cells (setting [2]) is over 10 µM; in the assay on 3T3 cells (read-out: MTT Assay IC50, 3T3), over 10 µM; in the assay on Z138 cells (setting [3]), over 10 µM.
Turning to `Nc1ccc(/C=C/C(=O)NCc2cc3cc(-c4ccc(C(=O)N5CCC(F)(F)CC5)cc4)cc(-c4ccc(F)nc4)c3o2)cn1` [Compound 735, (E)-3-(6-aminopyridin-3-yl)-N-((5-(4-(4,4-difluoropiperidine-1-carbonyl)phenyl)-7-(6-fluoropyridin-3-yl)benzofuran-2-yl)methyl)acrylamide], the IC50 with MS751 cells (setting [2]) is under 0.1 µM; with 3T3 cells (read-out: MTT Assay IC50, 3T3), 0.1 to 5 µM; in the assay with Z138 cells (setting [3]) it was under 0.1 µM.

A word on the IC50: it is the midpoint of a concentration-inhibition curve.
